Assay results taken from patent publication US20090104171A1, “Metabolic Enhancement Therapy” (priority 2007, published 2009).

Tests used:
[1] = oral supplementation, patient groups; cited from earlier work
NMDA glycine site = settings: in vivo; cited from earlier work
[2] = cited from earlier work
[3] = oral; cited from earlier work
[4] = Case study Example 2: person with moderately functioning autism; type: in vivo, human; settings: autistic person; for alleviation of behavioral symptoms: complete formulation
Excerpt: Person diagnosed with moderately functioning autism. Subject's behaviors were noteworthy for acute social withdrawal, pronounced language deficit, obsessive compulsive behaviors, acute anxiety attacks, aggression, hyperactivity, loss of concentration, fear and panic disorder, hyperactivity, depression, sleep deficit and acoustic hypersensitivity. Subject experienced loss of appetite and was underweight, although growth and sexual development was not stunted. […]

[5] = tested on: bacteria, protozoa or viruses; settings: cited from earlier work
[6] = tested on: yeasts and yeast-like fungi; settings: cited from earlier work
[7] = Case study Example 4: person with acute anxiety disorder and depression; settings: 2 years of treatment
[8] = Case study Example 3: person with schizophrenia; settings: for relief of symptoms (anxiety, obsessive compulsive behavior, psychosis): schizophrenic, formulation given while remaining on clozapine and lithium
Excerpt: Person diagnosed with schizophrenia. Hospitalized several times suffering from acute psychotic attack with hallucinations and paranoia. Treated with many typical and atypical antipsychotic drugs. […] Over the years, several diagnoses were given, including bipolar disorder, obsessive-compulsive disorder, affective disorder, and combinations thereof. Medications have included lithium, olanzapine, prozac, and several sleep medications. […] Patient went through years of treatment programs and weekly psychiatric sessions. Although they managed (with extreme difficulty) to obtain BA and MA degrees, paranoia and anxiety prevented them from working. Recent history. Patient has been on an atypical antipsychotic (clozapine) and high doses of lithium carbonate for the past 2 years. […] Patient started on Metabolic Enhancement Therapy with the disclosed formulation, while remaining on clozapine and lithium.

[9] = in vivo; cited from earlier work

## N[C@@H](Cc1c[nH]c2ccc(O)cc12)C(=O)O [5-hydroxytryptophan]
[1]
  effect on depression in clinical trials: only minor signs of efficacy

## N[C@@H]1CONC1=O [D-cycloserine]
NMDA glycine site
  extinction of conditioned fear: augment the extinction of conditioned fear

## O=C(O)c1cccnc1 [Niacin]
[2]; 2-4 g/day
  effects at pharmacologic doses: vasodilation (flushing reaction), a marked decrease in circulation fatty acids, cholesterol and lipoproteins, and an elevation of serum glucose and uric acid
[2]; in vivo
  dose without reported toxicity: up to 50 mg/day

## C[C@@H]1[C@H](O)[C@@H](C)/C=C/C=C/CC/C=C/C=C/C=C/C=C/C(O[C@H]2O[C@H](C)[C@@H](O)[C@H](N)[C@@H]2O)CC2O[C@](O)(CC(O)C(O)CCC(O)CC(O)CC(O)CC(=O)O[C@H]1C)CC(O)C2C(=O)O (some centres unmarked) [Nystatin]
[2]; in vivo
  tolerability / toxicity in words: generally well tolerated by all age groups
[3]
  gastrointestinal absorption: insignificant
[4]
  control of chronic intestinal yeast infections: effectively controlled yeast infections
[5]
  activity against bacteria, protozoa or viruses: no activity
[6]
  antifungal activity: both fungistatic and fungicidal

## CNCCC(Oc1ccc(C(F)(F)F)cc1)c1ccccc1 (centres unmarked) [Prozac]
[7]
  side effects: negative side effects
[8]; in vivo
  side effects induced by medication: induce tremors, rigidity, weight gain and diabetes
[8]
  relief of symptoms (anxiety, obsessive compulsive behavior, psychosis): None provided relief of symptoms

## C[S+](CC[C@H](N)C(=O)O)C[C@H]1O[C@@H](n2cnc3c(N)ncnc32)[C@H](O)[C@@H]1O (some centres unmarked) [S-adenosyl methionine (SAMe), S-adenosyl methionine]
[1]
  effect on depression in clinical trials: effective treatment for depression

## Cc1ncc(C[n+]2csc(CCO)c2C)c(N)n1 [Vitamin B1, Thiamine]
[2]; in vivo
  tolerability / toxicity in words: toxicities are very rare

## CC(=O)O[C@H](CC(=O)[O-])C[N+](C)(C)C [acetyl-L-carnitine]
[1]
  effect on depression in clinical trials: effective in relieving depression

## NCC(=O)O [glycine]
[1]
  effect on depression in clinical trials: useful in the treatment of certain forms of bipolar depression

## O=C([O-])[O-].[Li+].[Li+] [lithium carbonate]
[8]
  relief of symptoms (anxiety, obsessive compulsive behavior, psychosis): Obsessive-compulsive behavior progressively deteriorated

## O=C([O-])c1cc(=O)[nH]c(=O)[nH]1.[Li+] [lithium orotate]
[9]
  increase of delivery of lithium to brain by complexing with orotate: over 100 fold

## [Li] [lithium]
[8]; prior medications
  side effects induced by medication: induce tremors, rigidity, weight gain and diabetes

## Cc1cc2c(s1)Nc1ccccc1N=C2N1CCN(C)CC1 [olanzapine]
[8]; in vivo
  side effects induced by medication: induce tremors, rigidity, weight gain and diabetes

## Cc1ncc(CO)c(CO)c1O [vitamin B6, pyridoxine]
[2]; in vivo
  dose reported to induce peripheral neuropathy: exceed 2,000 mg/day
[1]
  effect on depression in clinical trials: helps alleviate depression associated with premenstrual syndrome

## amoxtatine
[4]
  alleviation of behavioral symptoms: proved totally ineffective

## secretin
[4]
  alleviation of behavioral symptoms: proved totally ineffective

## vitamin B12
[1]
  effect on depression in clinical trials: responsive to B12 supplementation

## vitamin E
[2]; in vivo
  dose without reported toxicity: up to 800 mg/day
